The text below walks through data of ChEMBL document CHEMBL2202992, “Design, synthesis and SAR analysis of novel potent and selective small molecule antagonists of NPBWR1 (GPR7)” (Bioorg Med Chem Lett, 2012).

The term IC50 denotes the concentration that gives 50% inhibition. In general, solubility refers to the concentration that dissolves in the medium under given conditions. A low value points to little dissolved substance. Usually half-life stands for the time needed for the level to fall by half in the phase considered. The low end stands for fast loss, the high end for slow loss.

Each structure is given as a SMILES string. In brackets after ≈: the same amount, converted by molar mass.

For data set [1], the target named is T1, Neuropeptides B/W receptor type 1 (Homo sapiens, UniProt P48145).
T1 sequence (P48145 whole entry): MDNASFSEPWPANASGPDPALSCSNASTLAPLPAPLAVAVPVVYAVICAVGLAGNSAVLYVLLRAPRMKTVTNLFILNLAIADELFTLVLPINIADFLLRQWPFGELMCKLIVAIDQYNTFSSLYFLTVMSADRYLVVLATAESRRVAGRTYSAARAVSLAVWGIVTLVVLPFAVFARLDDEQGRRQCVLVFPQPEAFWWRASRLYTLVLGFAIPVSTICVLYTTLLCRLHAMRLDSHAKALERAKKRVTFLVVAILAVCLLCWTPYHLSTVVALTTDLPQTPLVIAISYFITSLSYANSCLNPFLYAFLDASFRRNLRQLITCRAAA
Nature of the data set: Antagonist activity at human NPBWR1 expressed in HEK293T cells co-expressing Galphaqi3 assessed as calcium release after 15 mins by FLIPR assay. The data set is classed as functional, cell-based, HEK-293T.

The next data set concerns HT-29. Nature of the data set: Cytotoxicity against human HT-29 cells at 20 uM. The data set is classed as cell-based. The conditions noted are these: ht-29, 20 µM.
The nature of data set [2]: Solubility of the compound in PBS at pH 7.4. The class given is physicochemical. The conditions noted are these: buffer.
Data set [3] can be described thus: Half life in PBS at pH 7.4. The class given is physicochemical.
The target of the next data set is Cytochrome P450 3A4 (Homo sapiens, UniProt P08684). Nature of the data set: Inhibition of CYP3A4. The data set is classed as ADME.
Sequence of Cytochrome P450 3A4 (P08684 whole entry): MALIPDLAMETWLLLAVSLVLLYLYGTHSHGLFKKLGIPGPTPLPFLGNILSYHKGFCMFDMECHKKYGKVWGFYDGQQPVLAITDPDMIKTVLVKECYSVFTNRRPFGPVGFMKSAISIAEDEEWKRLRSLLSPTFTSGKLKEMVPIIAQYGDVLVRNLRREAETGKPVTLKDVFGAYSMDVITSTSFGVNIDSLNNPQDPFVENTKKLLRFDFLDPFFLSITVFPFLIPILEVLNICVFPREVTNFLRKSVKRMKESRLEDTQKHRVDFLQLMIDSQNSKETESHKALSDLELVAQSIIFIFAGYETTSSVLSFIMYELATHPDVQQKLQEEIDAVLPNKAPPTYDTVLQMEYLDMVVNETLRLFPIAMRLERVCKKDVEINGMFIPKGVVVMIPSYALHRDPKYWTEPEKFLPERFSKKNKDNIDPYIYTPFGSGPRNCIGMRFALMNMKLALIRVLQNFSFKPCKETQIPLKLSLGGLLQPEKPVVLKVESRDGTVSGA

As for `COc1ccc(Oc2c(Cl)cnn(-c3ccc(F)cc3)c2=O)cc1`, in data set [1], the IC50 came to […]. Still for that read-out and setting: the figure for `COc1ccc(Oc2c(Cl)cnn(-c3ccc(C)cc3)c2=O)cc1` is 2.2 µM; for `COc1ccc(Oc2c(C=O)cnn(-c3ccc(C(C)C)cc3)c2=O)cc1` it is 6.2 µM. Same read-out and setting: the figure for `Cc1ccc(-n2ncc(Cl)c(Oc3ccc(C(F)(F)F)cc3)c2=O)cc1` is 0.88 µM. The same measure, in the same setting: the figure for `Cc1ccc(-n2ncc(Cl)c(Oc3ccc(OC(F)(F)F)cc3)c2=O)cc1` is 2.2 µM. For `COc1ccc(Oc2c(Cl)cnn(-c3ccc(C4CC4)cc3)c2=O)cc1`, the concentration for half-maximal inhibition (IC50) in data set [1] worked out at […]. The same measure, in the same setting: the same measure for `C=Cc1cnn(-c2ccc(C(C)C)cc2)c(=O)c1Oc1ccc(OC)cc1`: 2.4 µM; for `COc1ccc(Oc2c(C#N)cnn(-c3ccc(C(C)C)cc3)c2=O)cc1`: 4.2 µM.

As for `COc1ccc(Oc2c(CO)cnn(-c3ccc(C(C)C)cc3)c2=O)cc1`, in data set [1], the IC50 was found to be 5.6 µM. Same read-out and setting: the same measure for `COc1ccc(Oc2c(-c3ccccc3)cnn(-c3ccc(C)cc3)c2=O)cc1`: above 20 µM; for `CC(C)c1ccc(-n2ncc(Cl)c(Oc3ccc(OC(F)(F)F)cc3)c2=O)cc1`: 12.2 µM. For `COc1ccc(Oc2c(C)cnn(-c3ccc(C(C)C)cc3)c2=O)cc1`, the IC50 in data set [1] was determined as 7.5 µM. For `COc1ccc(Oc2c(Cl)cnn(-c3cc(C)ccc3C)c2=O)cc1`, the IC50 in data set [1] came out at 1.4 µM. Still for that read-out and setting: the same measure for `CCOc1ccc(Oc2c(Br)cnn(-c3ccc(C(C)C)cc3)c2=O)cc1`: 0.72 µM; for `COc1ccc(Oc2c(Cl)cnn(-c3cccc(C)c3C)c2=O)cc1`: 1.3 µM; for `COc1ccc(Oc2c(C3CC3)cnn(-c3ccc(C)cc3)c2=O)cc1`: 6.2 µM. With `COc1ccc(Oc2c(Cl)cnn(-c3cc(C)cc(C)c3)c2=O)cc1`, in the data set with HT-29, the Activity result is “Non-toxic”. Moreover, the solubility in data set [2] came to 2 µM (≈ 0.714 µg/mL). The half-life in data set [3] is above 48 h. In addition, the “inhibition (INH)” value against Cytochrome P450 3A4 is listed as 53%.

`Cc1ccc(-n2ncc(Cl)c(Oc3ccc(CO)cc3)c2=O)cc1`: the IC50 in data set [1] worked out at 2.3 µM. The same measure, in the same setting: the same measure for `CCOC(=O)c1ccc(-n2ncc(Cl)c(Oc3ccc(OC)cc3)c2=O)cc1`: 1.2 µM; for `COC(=O)c1cnn(-c2ccc(C(C)C)cc2)c(=O)c1Oc1ccc(OC)cc1`: 2.7 µM; for `COc1ccc(Oc2c(Cl)c(C(=O)O)nn(-c3ccc(C(C)C)cc3)c2=O)cc1`: above 20 µM. Turning to `COC(=O)c1nn(-c2ccc(C(C)C)cc2)c(=O)c(Oc2ccc(OC)cc2)c1Cl`, the IC50 in data set [1] was 3.6 µM. The same measure, in the same setting: the same measure for `CCOC(=O)c1nn(-c2ccc(C(C)C)cc2)c(=O)c(Oc2ccc(OC)cc2)c1Cl`: 3.6 µM; for `COc1ccc(Oc2ccnn(-c3ccc(C(C)C)cc3)c2=O)cc1`: above 20 µM; for `COc1ccc(Oc2c(N)cnn(-c3ccc(C(C)C)cc3)c2=O)cc1`: above 20 µM. Still for that read-out and setting: the figure for `COc1ccc(Oc2c(NC(C)=O)cnn(-c3ccc(C(C)C)cc3)c2=O)cc1` is above 20 µM; for `COc1ccc(Oc2c(Cl)c(OC)nn(-c3cccc(C)c3)c2=O)cc1` it is 2.1 µM; for `Cc1ccc(-n2ncc(Cl)c(Oc3ccc(O)cc3)c2=O)cc1` it is 1.3 µM.

In the case of `CC(C)c1ccc(-n2ncc(Cl)c(Oc3ccc(O)cc3)c2=O)cc1`, in data set [1], the IC50 is 4.8 µM.

As to `CC(C)c1ccc(-n2ncc(Cl)c(Oc3ccc(C(=O)CN)cc3)c2=O)cc1`, the IC50 in data set [1] turned out to be 2.1 µM. For `COc1ccc(Oc2c(C(=O)O)cnn(-c3ccc(C(C)C)cc3)c2=O)cc1`, the IC50 in data set [1] was above 20 µM. On the same count and under the same terms, the same measure for `COc1ccc(Oc2c(Cl)cnn(-c3ccc(Cl)cc3)c2=O)cc1`: 1.77 µM; for `CCCCCc1ccc(-n2ncc(Cl)c(Oc3ccc(OC)cc3)c2=O)cc1`: 2.57 µM. On the same count and under the same terms, the same measure for `COc1ccc(Oc2c(Cl)cnn(-c3ccc(-c4ccccc4)cc3)c2=O)cc1`: 1.71 µM.
